According to the supplement of paper PMC7695840:
Counter-ions that a name gives are not always drawn.

Tests used:
[1] = system: Staphylococcus aureus MW2 (mecA+); assay: IC50 (growth, competition assay); settings: cefoxitin: subinhibitory
How it was run: (§1)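 Signals from DsRed (540/590) and GFP (485/520) were scaled on every plate between single-strain control medians, with No Treatment then set to 0.5. The cells were a 1:1 mix of pre-induced fluorescent S. aureus MW2 strains with and without the resistance gene, grown unshaken for 20 h at 37 °C and 90% humidity in LB in 1536-well plates under a subinhibitory drug dose set each day. Each strain's IC50 was defined as the dose halving the No Treatment signal, or the maximal signal.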

[2] = system: Staphylococcus aureus MW2 delta-mecA (mecA-); assay: IC50 (growth, competition assay); settings: cefoxitin: subinhibitory
How it was run: as §1

SMILES	IC50 ([1]; fluorescent label: DsRed) [µM]	IC50 ([1]; fluorescent label: GFP) [µM]	IC50 ([2]; fluorescent label: DsRed) [µM]	IC50 ([2]; fluorescent label: GFP) [µM]
CN[C@H]1CC[C@@H](c2ccc(Cl)c(Cl)c2)c2ccccc21 [Sertraline HCl]	94.5	111	12	< 9.85
CO/N=C(\C(=O)N[C@@H]1C(=O)N2C(C(=O)O)=C(CSc3nc(=O)c(O)nn3C)CS[C@H]12)c1csc(N)n1 [Ceftriaxone sodium]	14.9	14.9	< 9.85	< 9.85
C[C@H]1COc2c(N3CCN(C)CC3)c(F)cc3c(=O)c(C(=O)O)cn1c23 [Levofloxacin (Levaquin)]	< 0.498	< 0.498	< 0.498	< 0.498
Clc1ccc(C(c2ccc(Cl)cc2)[n+]2ccn(CC(OCc3ccc(Cl)cc3Cl)c3ccc(Cl)cc3Cl)c2)cc1 (configuration not stated) [Calmidazolium chloride]	< 9.85	< 9.85	< 9.85	< 9.85
N#Cc1c(Cl)c(Cl)c(Cl)c(C#N)c1Cl [CHLOROTHALONIL]	< 9.85	< 9.85	< 9.85	< 9.85
O=C(Nc1cc(C(F)(F)F)cc(C(F)(F)F)c1)c1cc(Cl)ccc1O [IMD0354]	< 9.85	< 9.85	< 9.85	< 9.85
CN1C[C@H](CNC(=O)OCc2ccccc2)C[C@@H]2c3cccc4c3c(cn4C)C[C@H]21 [METERGOLINE]	50.7	53.6	16.8	15.9
CC1(C)S[C@@H]2[C@H](NC(=O)[C@H](NC(=O)N3CCNC3=O)c3ccccc3)C(=O)N2[C@H]1C(=O)O [Azlocillin sodium salt]	< 9.85	27.7	< 9.85	< 9.85
CCCCCCCCCCCCCCCC(=O)OC[C@H](O)[C@H]1OC(=O)C(O)=C1O [EMPROVE]	52.5	87.6	< 9.85	< 9.85
CC[C@@]1([C@H]2O[C@H]([C@H]3O[C@@](O)(CO)[C@H](C)C[C@@H]3C)C[C@H]2C)CC[C@H]([C@@]2(C)CC[C@]3(C[C@H](O)[C@@H](C)[C@@H]([C@H](C)[C@H](OC)[C@@H](C)C(=O)O)O3)O2)O1 [RUMENSIN]	< 9.85	< 9.85	< 9.85	12.5
CCOc1nc2cccc(C(=O)OCc3oc(=O)oc3C)c2n1Cc1ccc(-c2ccccc2-c2noc(=O)[nH]2)cc1 [EDARBI]	18.7	58.9	12.8	< 9.85
Brc1c(Br)c(Br)c2[nH]cnc2c1Br [TBBz]	12.4	30.5	11.7	11.3
CC(C)(C)C#Cc1cc(N(C(=O)[C@H]2CC[C@H](C)CC2)[C@H]2CC[C@H](O)CC2)c(C(=O)O)s1 [VX-222]	25.7	53.7	16.8	17.4
CCCCCCCCCCCCCCCCC(C(=O)O)C(O)(CC(=O)O)C(=O)O (configuration not stated) [AGARIC ACID]	12.8	20.6	< 9.85	< 9.85
CC(C)(O)CC(=O)NCCn1ccc2ncnc(Nc3ccc(Oc4cccc(C(F)(F)F)c4)c(Cl)c3)c21 [TAK-285]	26.6	28.3	< 9.85	< 9.85
NC(=O)N/N=C/c1ccc([N+](=O)[O-])o1 [ACTIN-N]	16.2	15	10.5	< 9.85
COc1cc(NS(C)(=O)=O)ccc1Nc1c2ccccc2nc2ccccc12 [Amsacrine hydrochloride]	106	97.2	< 9.85	< 9.85
CN[C@H]1CC[C@@H](c2ccc(Cl)c(Cl)c2)c2ccccc21 [Sertraline hydrochloride]	96.4	77.9	22.8	33.7
O=c1cc(-c2ccc(O)c(O)c2)oc2cc(O)cc(O)c12 [Luteolin]	57	56.6	27.6	20
Cc1cc2c(C(C)C)c(O)c(O)c(C=O)c2c(O)c1-c1c(C)cc2c(C(C)C)c(O)c(O)c(C=O)c2c1O [GOSSYPOL]	< 9.85	< 9.85	< 9.85	< 9.85
C=C1c2cccc(O)c2C(=O)C2=C(O)[C@]3(O)C(=O)C(C(N)=O)=C(O)[C@@H](N(C)C)[C@@H]3[C@@H](O)[C@H]12 [Methacycline hydrochloride (Physiomycine)]	0.702	0.644	< 0.498	< 0.498
CC1(C)S[C@@H]2[C@H](NC(=O)C(C(=O)O)c3ccccc3)C(=O)N2[C@H]1C(=O)O (some centres not stated) [CARBECIN]	23.7	36.6	< 9.85	< 9.85

SMILES	IC50 ([1]; fluorescent label: DsRed) [µM]	IC50 ([1]; fluorescent label: GFP) [µM]	IC50 ([2]; fluorescent label: DsRed) [µM]	IC50 ([2]; fluorescent label: GFP) [µM]
CC(C)(Sc1ccc(CCN(CCCCC2CCCCC2)C(=O)NC2CCCCC2)cc1)C(=O)O [GW7647]	14.3	13.1	< 9.85	< 9.85
CO/N=C(\C(=O)N[C@@H]1C(=O)N2C(C(=O)OCOC(=O)C(C)(C)C)=C(/C=C\c3scnc3C)CS[C@H]12)c1csc(N)n1 [Cefditoren pivoxil]	16.7	13.3	< 0.498	< 0.498
C=CCc1ccc(O)c(-c2cc(CC=C)ccc2O)c1 [Magnolol]	40.1	49.9	12	8.24
C/C(=C\C(=O)Nc1ccccc1C(=O)O)c1ccc2ccccc2c1 [BIBR1532]	< 9.85	12.3	< 9.85	< 9.85
Cc1coc2c1C(=O)C(=O)c1c-2ccc2c(C)cccc12 [Tanshinone I]	130	> 150	76.7	64
CC1(C)C(=O)N(CCN2CCC(C(=O)c3ccc(F)cc3)CC2)c2ccccc21	38.6	98.8	54.1	16.1
O=C1OCCN1/N=C/c1ccc([N+](=O)[O-])o1 [FUROXONE]	< 9.85	< 9.85	< 9.85	< 9.85
C[C@@H](O)[C@H]1C(=O)N2C(C(=O)[O-])=C(SC3Cn4cnc[n+]4C3)[C@H](C)[C@H]12 (some centres not stated) [Biapenem]	104	112	31.4	24.7
O=C(Nc1ccccc1)Nc1ccc(-c2ccc(C(=O)[C@@H]3CCC[C@H]3C(=O)O)cc2)cc1	22.7	41.4	< 9.85	< 9.85
O=C(Nc1cccc(C(F)(F)F)c1)Nc1cc(S(=O)(=O)NC2CC2)ccc1-c1ccsc1 [AGI-6780]	33.7	36.9	18.5	11.6
CNC(=O)c1cc(Oc2ccc(NC(=O)Nc3ccc(Cl)c(C(F)(F)F)c3)cc2)ccn1 [Sorafenib]	< 9.85	< 9.85	< 9.85	< 9.85
CCN1CCN(C(=O)N[C@@H](C(=O)N[C@@H]2C(=O)N3[C@@H]2SC(C)(C)[C@@H]3C(=O)O)c2ccccc2)C(=O)C1=O [PIPRACIL]	26.8	25.2	< 9.85	< 9.85
Cc1cc(O)c(C(=O)N[C@@H](C(=O)N[C@@H]2C(=O)N3C(C(=O)O)=C(CSc4nnnn4C)CS[C@H]23)c2ccc(O)cc2)cn1 [CEFPIRAN]	< 9.85	< 9.85	< 9.85	< 9.85
CC(=O)OCC1=C(C(=O)O)N2C(=O)[C@@H](NC(=O)Cc3cccs3)[C@H]2SC1 [Cephalothin sodium]	< 9.85	< 9.85	< 9.85	< 9.85
O=C1c2ccccc2-c2nc3nonc3nc21 [SMER 3]	65.9	> 150	20.4	< 9.85
CCCCCCCCCCCCCCCC(=O)OC(CC(=O)O)C[N+](C)(C)C (racemic) [Palmitoyl-DL-Carnitine chloride]	12.1	14.3	< 9.85	< 9.85
C[CH2][Hg][S]c1ccccc1C(=O)[O-].[Na+] [MERTHIOLATE]	< 9.85	< 9.85	< 9.85	< 9.85
C[C@H](CCC(=O)O)[C@H]1CC[C@H]2[C@@H]3[C@H](O)C[C@@H]4C[C@H](O)CC[C@]4(C)[C@H]3CC[C@]12C [Chenodeoxycholic acid]	54	91.4	14.8	7.91
CCCCCCCCCCCCCCCC[N+](C)(C)CCN(Cc1ccc(OC)cc1)c1ncccn1 [THONZIDE]	< 9.85	14.9	< 9.85	< 9.85
CC[C@H](C)[C@H](N)C1=N[C@H](C(=O)N[C@@H](CC(C)C)C(=O)N[C@H](CCC(=O)[O-])C(=O)N[C@H](C(=O)N[C@H]2CCCCNC(=O)[C@H](CC(N)=O)NC(=O)[C@@H](CC(=O)[O-])NC(=O)[C@H](Cc3cnc[nH]3)NC(=O)[C@@H](Cc3ccccc3)NC(=O)[C@H]([C@@H](C)CC)NC(=O)[C@@H](CCCN)NC2=O)[C@@H](C)CC)CS1.[Zn+2] [Bacitracin zinc]	35.2	49.1	4.32	4.06
CC1COc2c(N3CCN(C)CC3)c(F)cc3c(=O)c(C(=O)O)cn1c23 (configuration not stated) [Ofloxacin]	< 9.85	< 9.85	< 9.85	< 9.85
